Where a name gives a salt, the structure may show the parent alone. Read-outs that look alike come from different tables or passages of the source.

Data set [1] has as its system PrP^Sc levels in ScN2a-cl3 cells. Briefly: cells. The data set is classed as cell-based, mouse.
The next data set can be described thus: in vivo. Conditions: mouse, po, 10 mg/kg.
A short description of a further data set: in vitro. Conditions: mouse, microsomes.
For data set [2] the following is noted: mouse, in vivo; cited from earlier work.
For data set [3] the following is noted: mouse, microsomes.
The mark [4] stands for this setting: Mus musculus, read-out: EC50 ± SEM(nM).

`Cc1cccc(Nc2nc(-c3ccc(-c4ccnc(N(C)C)c4)cc3)cs2)n1` [Compound 30, 4-(4-(2-(dimethylamino)pyridin-4-yl)phenyl)-N-(6-methylpyridin-2-yl)thiazol-2-amine]: the EC50 in data set [1] (setting [4]) amounted to 123 ± 35 nM.
Take `Cc1cccc(Nc2nc(-c3ccc(-c4ccccc4)cc3)cs2)n1` [Compound 1, (4-Biphenyl-4-yl-thiazol-2-yl)-(6-methyl-pyridin-2-yl)-amine]: the EC50 in data set [1] (setting [4]) was 1290 ± 122 nM. In addition, the maximum concentration (Cmax) in the data set “in vivo” was determined as 2450 ± 740 nM. Besides, the half-life in “in vitro” was above 60 min. Moreover, in data set [2], the “oral bioavailability (%F)” value was around 40%.
Regarding `Cc1cccc(Nc2nc(-c3ccc(-c4ccnc(N5CCN(C)CC5)c4)cc3)cs2)n1` [Compound 32, 4-(4-(2-(4-methylpiperazin-1-yl)pyridin-4-yl)phenyl)-N-(6-methylpyridin-2-yl)thiazol-2-amine], the EC50 in data set [1] (setting [4]) was 759 ± 374 nM. Further, in “in vivo”, the Cmax turned out to be 1170 ± 190 nM. Moreover, the AUC in “in vivo” (AUC (μM *h) Brain) turned out to be 5.22 ± 0.1 µM·h; in “in vivo” (AUC (μM *h) Plasma), 1.57 ± 0.15 µM·h. Besides, in “in vitro”, the half-life is 6.8 min.
Take `Cc1cccc(Nc2nc(-c3ccc(-c4ccnc(OC(C)C)c4)cc3)cs2)n1` [Compound 28, 4-(4-(2-isopropoxypyridin-4-yl)phenyl)-N-(6-methylpyridin-2-yl)thiazol-2-amine]: the EC50 in data set [1] (setting [4]) amounted to 2840 ± 22 nM.
Same read-out and setting: with `Cn1nccc1-c1ccc(-c2csc(NC(=O)C3CC3)n2)cc1` [Compound 42, Cyclopropanecarboxylic acid {4-[4-(2-methyl-2H-pyrazol-3-yl)-phenyl]-thiazol-2-yl}-amide] the figure was above 10000 nM; with `Cc1ncccc1-c1ccc(-c2csc(NC(=O)C3CC3)n2)cc1` [Compound 40, Cyclopropanecarboxylic acid {4-[4-(2-methyl-pyridin-3-yl)-phenyl]-thiazol-2-yl}-amide], above 10000 nM.
With `Cc1cccc(Nc2nc(-c3ccc(-c4ccc(OC(C)C)nc4)cc3)cs2)n1` [Compound 29, 4-(4-(6-Isopropoxypyridin-3-yl)phenyl)-N-(6-methylpyridin-2-yl)thiazol-2-amine], in data set [1] (setting [4]), the EC50 was 5860 ± 327 nM.
Consider `Cc1cccc(Nc2nc(-c3ccc(-c4cc[n+]([O-])cc4)cc3)cs2)n1` [Compound 13, 4-(4-(2-((6-Methylpyridin-2-yl)amino)thiazol-4-yl)phenyl)pyridine 1-oxide], for which, in data set [1] (setting [4]), the EC50 is 559 ± 120 nM.
For `Cc1cccc(Nc2nc(-c3ccc(-c4c(C)noc4C)cc3)cs2)n1` [Compound 19, {4-[4-(3,5-Dimethyl-isoxazol-4-yl)-phenyl]-thiazol-2-yl}-(6-methyl-pyridin-2-yl)-amine], the EC50 in data set [1] (setting [4]) was 2130 ± 226 nM.
As to `COCCOc1cc(-c2ccc(-c3csc(Nc4cccc(C)n4)n3)cc2)ccn1` [Compound 26, 4-(4-(2-(2-methoxyethoxy)pyridin-4-yl)phenyl)-N-(6-methylpyridin-2-yl)thiazol-2-amine], the EC50 in data set [1] (setting [4]) was determined as 153 ± 36 nM. This molecule also returned a maximum concentration (Cmax) in the data set “in vivo” of 330 ± 160 nM. The AUC in “in vivo” (AUC (μM *h) Brain) came to 1.04 ± 0.13 µM·h.
On to `COCCOc1cc(-c2ccc(-c3csc(NC(=O)C4CC4)n3)cc2)ccn1` [Compound 44, N-(4-(4-(2-(2-methoxyethoxy)pyridin-4-yl)phenyl)thiazol-2-yl)cyclopropanecarboxamide], for which the 50% effective concentration (EC50) in data set [1] (setting [4]) was 1320 ± 233 nM.
For the molecule `CN1CCN(c2ccc(-c3ccc(-c4csc(NC(=O)C5CC5)n4)cc3)cn2)CC1` [Compound 47, N-(4-(4-(6-(4-methylpiperazin-1-yl)pyridin-3-yl)pheyl)thiazol-2-yl)cyclopropanecarboxamide], the concentration giving a half-maximal response (EC50) in data set [1] (read-out: EC50 ± SEM) was 70 ± 23 nM. Further, the “T1/2” value in data set [3] is listed as 2.5 min.
As for `COc1ccc(-c2ccc(-c3csc(Nc4cccc(C)n4)n3)cc2)cn1` [Compound 25, {4-[4-(6-Methoxy-pyridin-3-yl)-phenyl]-thiazol-2-yl}-(6-methyl-pyridin-2-yl)-amine], in data set [1] (setting [4]), the concentration giving a half-maximal response (EC50) worked out at 140 ± 23 nM.
Consider `Cc1cccc(Nc2nc(-c3ccc(-c4ccc(N(C)C)nc4)cc3)cs2)n1` [Compound 31, 4-(4-(6-(Dimethylamino)pyridin-3-yl)phenyl)-N-(6-methylpyridin-2-yl)thiazol-2-amine], for which the 50% effective concentration (EC50) in data set [1] (setting [4]) came to 69 ± 21 nM.
With `COCCOc1ccc(-c2ccc(-c3csc(NC(=O)C4CC4)n3)cc2)cn1` [Compound 46, N-(4-(4-(6-(2-methoxyethoxy)pyridin-3-yl)phenyl)thiazol-2-yl)cyclopropanecarboxamide], in data set [1] (setting [4]), the EC50 is 118 ± 11 nM. This molecule also displayed a Cmax in “in vivo” of 150 ± 10 nM. The area under the curve (AUC) in the data set “in vivo” (AUC (μM *h) Brain) stood at 0.32 µM·h; in the data set “in vivo” (AUC (μM *h) Plasma), 0.26 ± 0.01 µM·h. Besides, the half-life in “in vitro” was found to be 55 min.
With `Cc1cccc(Nc2nc(-c3ccc(-c4ccc(N5CCN(C)CC5)nc4)cc3)cs2)n1` [Compound 33, 4-(4-(6-(4-Methylpiperazin-1-yl)pyridin-3-yl)phenyl)-N-(6-methylpyridin-2-yl)thiazol-2-amine], in data set [1] (setting [4]), the half-maximal effective concentration (EC50) turned out to be 96 ± 31 nM.
Same read-out and setting: with `O=C(Nc1nc(-c2ccc(-c3ccncc3)cc2)cs1)C1CC1` [Compound 39, Cyclopropanecarboxylic acid [4-(4-pyridin-4-yl-phenyl)-thiazol-2-yl]-amide trifluoroacetic acid salt] the figure was 173 ± 16 nM.
As to `Cc1cccc(Nc2nc(-c3ccc(-c4cccnc4)cc3)cs2)n1` [Compound 15, (6-Methyl-pyridin-2-yl)-[4-(4-pyridin-3-yl-phenyl)-thiazol-2-yl]-amine], the “fold greater antiprion potency than 1” value in data set [1] is given as above 10 fold. The concentration giving a half-maximal response (EC50) in data set [1] (setting [4]) was determined as 68 ± 13 nM. Besides, in the data set “in vitro”, the half-life is above 60 min.
Turning to `Cc1cccc(Nc2nc(-c3ccc(-c4ccc[n+]([O-])c4)cc3)cs2)n1` [Compound 16, 3-(4-(2-((6-Methylpyridin-2-yl)amino)thiazol-4-yl)phenyl)pyridine 1-oxide], the EC50 in data set [1] (setting [4]) was determined as 203 ± 10 nM. In the data set “in vivo”, this molecule came in with a Cmax of 900 ± 240 nM. Besides, the values for the exposure (AUC) in the data set “in vivo” (AUC (μM *h) Brain) and in “in vivo” (AUC (μM *h) Plasma) were 3.85 ± 0.52 µM·h and 11.5 ± 0.71 µM·h, respectively. The molecule further displayed a half-life in the data set “in vitro” above 60 min.
Take `Cc1cccc(Nc2nc(-c3ccc(-c4cccnc4C)cc3)cs2)n1` [Compound 17, (6-Methyl-pyridin-2-yl)-{4-[4-(2-methyl-pyridin-3-yl)-phenyl]-thiazol-2-yl}-amine trifluoro acetic acid salt]: the concentration for a half-maximal effect (EC50) in data set [1] (setting [4]) worked out at 618 ± 54 nM.
As for `COCCOc1cccc(Nc2nc(-c3ccc(-c4ccccc4)cc3)cs2)n1` [Compound 22, 4-([1,1′-Biphenyl]-4-yl)-N-(6-(2-methoxyethoxy)pyridin-2-yl)thiazol-2-amine], the “antiprion activity (in words)” value in data set [1] was “inactive”. Moreover, the EC50 in data set [1] (setting [4]) is above 10000 nM.
Take `Cc1cccc(Nc2nc(-c3ccc(-c4ccncc4)cc3)cs2)n1` [Compound 12, (6-Methyl-pyridin-2-yl)-[4-(4-pyridin-4-yl-phenyl)-thiazol-2-yl]-amine]: in data set [1], the “fold greater antiprion potency than 1” value was above 10 fold. In data set [1] (setting [4]), the EC50 came to 87 ± 43 nM. In addition, the half-life in “in vitro” is above 60 min.
As to `COCCOc1ccc(-c2ccc(-c3csc(Nc4cccc(C)n4)n3)cc2)cn1` [Compound 27, 4-(4-(6-(2-methoxyethoxy)pyridin-3-yl)phenyl)-N-(6-methylpyridin-2-yl)thiazol-2-amine], the EC50 in data set [1] (setting [4]) stood at 137 ± 13 nM. In addition, the Cmax in the data set “in vivo” came out at 970 ± 220 nM. The area under the curve (AUC) came out at 3.27 ± 0.44 µM·h in “in vivo” (AUC (μM *h) Brain) and 6.75 ± 0.45 µM·h in “in vivo” (AUC (μM *h) Plasma). Also, in the data set “in vitro”, the half-life is above 60 min.
For `CN1CCN(c2cc(-c3ccc(-c4csc(NC(=O)C5CC5)n4)cc3)ccn2)CC1` [Compound 45, N-(4-(4-(2-(4-methylpiperazin-1-yl)pyridin-4-yl)phenyl)thiazol-2-yl)cyclopropanecarboxamide], the EC50 in data set [1] (setting [4]) was 682 ± 100 nM. The Cmax in the data set “in vivo” is 250 ± 110 nM. For the same molecule, the AUC in the data set “in vivo” (AUC (μM *h) Brain) was 1.29 ± 0.02 µM·h; in “in vivo” (AUC (μM *h) Plasma), 0.76 ± 0.01 µM·h. The half-life in “in vitro” is 4.4 min.
As for `Cc1noc(C)c1-c1ccc(-c2csc(NC(=O)C3CC3)n2)cc1` [Compound 43, Cyclopropanecarboxylic acid {4-[4-(3,5-dimethyl-isoxazol-4-yl)-phenyl]-thiazol-2-yl}-amide], the 50% effective concentration (EC50) in data set [1] (setting [4]) is above 10000 nM.
Same read-out and setting: in the case of `Cc1cccc(Nc2nc(-c3ccc(N4CCN(C)CC4)cc3)cs2)n1` [Compound 20, {4-[4-(4-Methyl-piperazin-1-yl)-phenyl]-thiazol-2-yl}-(6-methyl-pyridin-2-yl)-amine] it was 840 ± 132 nM.
Same read-out and setting: with `Cc1cccc(Nc2nc(-c3ccc(N4CCOCC4)cc3)cs2)n1` [Compound 21, (6-Methyl-pyridin-2-yl)-[4-(4-morpholin-4-yl-phenyl)-thiazol-2-yl]-amine] the figure was 51 ± 7 nM; with `CN(C)c1cccc(Nc2nc(-c3ccc(-c4ccccc4)cc3)cs2)n1` [Compound 23, N2-(4-([1,1′-biphenyl]-4-yl)thiazol-2-yl)-N6,N6-dimethylpyridine-2,6-diamine], 699 ± 87 nM.
The same measure, in the same setting: with `Cc1cccc(Nc2nc(-c3ccc(-c4ccnn4C)cc3)cs2)n1` [Compound 18, {4-[4-(2-Methyl-2H-pyrazol-3-yl)-phenyl]-thiazol-2-yl}-(6-methyl-pyridin-2-yl)-amine] the figure was 89 ± 35 nM; with `Cc1cccc(Nc2nc(-c3ccc(-c4ccncc4C)cc3)cs2)n1` [Compound 14, (6-Methyl-pyridin-2-yl)-{4-[4-(3-methyl-pyridin-4-yl)-phenyl]-thiazol-2-yl}-amine trifluoro acetic acid salt], 400 ± 61 nM; with `CN(C)c1ccc(-c2ccc(-c3csc(NC(=O)C4CC4)n3)cc2)cn1` [Compound 41, Cyclopropanecarboxylic acid {4-[4-(6-dimethylamino-pyridin-3-yl)-phenyl]-thiazol-2-yl}-amide], 109 ± 12 nM.
For the molecule `O=C(Nc1nc(-c2ccc(-c3ccccc3)cc2)cs1)C1CC1` [Compound 34, cyclopropanecarboxylic acid (4-biphenyl-thiazol-2-yl)-amide], in data set [1] (read-out: EC50 ± SEM), the EC50 was found to be 248 ± 67 nM. In addition, the “T1/2” value in data set [3] is recorded as above 60 min.
As for `CN1CCN(c2cccc(Nc3nc(-c4ccc(-c5ccccc5)cc4)cs3)n2)CC1` [Compound 24, 4-([1,1′-Biphenyl]-4-yl)-N-(6-(4-methylpiperazin-1-yl)pyridin-2-yl)thiazol-2-amine], the EC50 in data set [1] (setting [4]) is 1180 ± 206 nM.

What is called EC50 is the midpoint of the concentration-response curve. As a reminder, the Cmax is the peak of the concentration-time curve. As usually defined, the half-life is the time in which the quantity being followed falls by half. The term AUC denotes the area under the concentration-time curve, a measure of exposure. A high value points to high exposure.

The record behind these values is PMC3984044 (ChemMedChem, 2013).
